Reference: US4863951A, “Pharmacologically active amino-5,6,7,8-tetrahydronaphtho [2,3-B] furan compounds” (ADIR Et Cie, priority 1987, dated 1989)
Counter-ions that a name gives are not always drawn. Like-named read-outs stand apart in the source and are kept apart here.

What was measured:
[1] = test system: apomorphine-induced rearing-up; assay: Antagonism of apomorphine-induced rearing-up behavior in mice; assay type: in vivo; details: apomorphine 0.75 mg.kg^-1 s.c.; for change in vivo at 10 mg/kg / change in vivo at 20 mg/kg / change in vivo at 2.5 mg/kg / change in vivo at 5 mg/kg: Mus musculus, ip; for change in vivo at 2.5 mg/kg: read-out: % inhibition of rearing-up, mice, i.p. dose 2.5 mg.kg^-1; for change in vivo at 5 mg/kg: read-out: % inhibition of rearing-up, mice, i.p. dose 5 mg.kg^-1; for % inhibition of rearing-up: hydrochloride
Description: Studied in the test of antagonism of apomorphine-induced rearing-up following the subcutaneous administration of a dose of 0.75 mg.kg^-1 of this substance in mice, the compounds of general formula I act in a clear-cut manner at doses greater than or equal to 2.5 mg.kg^-1 (i.p.). The same results are observed when the compounds of general formula I are administered orally at a dose of 20 mg.kg^-1. The activity of the compounds was assessed according to the method described by Protais P, Costentin J and Schwartz J. C. in Psychopharmacology (1976), 50, p. 1-6.
(§1) (s=significant difference, p<0.05).

[2] = test system: apomorphine-induced hypothermia; assay: Antagonism with respect to apomorphine-induced hypothermia in mice; assay type: in vivo; details: apomorphine 1 mg.kg^-1 s.c., after 2 hours; for change in vivo at 10 mg/kg / change in vivo at 20 mg/kg / change in vivo at 2.5 mg/kg / change in vivo at 5 mg/kg: Mus musculus, ip; for change in vivo at 2.5 mg/kg: read-out: % antagonism of hypothermia, mice, i.p. dose 2.5; for change in vivo at 5 mg/kg: read-out: % antagonism of hypothermia, mice, i.p. dose 5; for % antagonism of hypothermia: hydrochloride
Description: Testing for an antagonism with respect to apomorphine-induced hypothermia in mice was performed according to the method described by CHERMAT R. and PONCELET M. in J. Pharmac. (1983), 14, No. 1, p. 93-97. The dose of apomorphine administered subcutaneously was 1 mg.kg^-1. Tables VII and VIII show the percentage antagonism of the hypothermia observed after 2 hours.

[3] = test system: ponto-geniculo-occipital (P.G.O.) waves induced by Ro4-1284; assay: Antagonism of the ponto-geniculo-occipital (P.G.O.) waves induced by Ro4-1284; assay type: in vivo; details: Felis catus, iv, cats, i.v., read-out: ED50 (effective dose inhibiting by 50% the number of P.G.O. waves)
Description: (§2) The antidepressant effects of the compounds of the invention were investigated by assessing the antagonism of reserpine-induced hypothermia and the antagonism of the ponto-geniculo-occipital waves induced by the compound Ro4-1284 in cats.
This study was performed according to the method of Ruch-Monachon M. A., Jalfre M. and Haefely W. described in Arch. Int. Pharm. Therap., (1976), 219, No. 2, p. 251-346, and it enabled the effective dose (i.v) inhibiting by 50% (ED50) the number of P.G.O waves to be assessed.

[4] = test system: amphetamine-induced stereotypy; assay: Antagonism of amphetamine-induced stereotypy in rats; assay type: in vivo; details: 3 hours
Description: (§3) The inhibitory activity of the compounds of the invention with respect to apomorphine- or amphetamine-induced stereotypy in rats was assessed using the scale of scoring of stereotyped movements described by Quinton R. M. and Halliwell G. in Nature (1963), 200, p. 178-179.
(§4) Apomorphine or amphetamine was administered to the animals intraperitoneally at a dose of 1.5 mg.kg^-1. The percentage inhibition (-) or potentiation (+) of the stereotypy score (% ISS) shown in Tables IV and V for apomorphine corresponds to a measurement time of 30 minutes. In contrast, the percentage inhibition of the stereotypy score shown in Table VI for amphetamine corresponds to a measurement time of 3 hours.
as §1

[5] = test system: reserpine-induced hypothermia; assay: Antagonism of reserpine-induced hypothermia; assay type: in vivo, Swiss CD male mice; details: mice, reserpine 2.5 mg.kg^-1 i.p.
Description: as §2
The study is carried out on Swiss CD male mice (27-28 g). After distribution into groups of 10 animals each, reserpine is injected intraperitoneally at a dose of 2.5 mg.kg^-1. Three hours later, the compounds undergoing trial are administered intraperitoneally. The rectal temperature of the animals is measured one hour and two hours after the second treatment, and compared with the initial temperature To of these same animals, measured immediately before the administration of the compounds undergoing trial.

[6] = test system: apomorphine-induced stereotypy; assay: Antagonism of apomorphine-induced stereotypy in rats; assay type: in vivo; details: Rattus norvegicus, ip, 0.5 h, apomorphine 1.5 mg.kg^-1 i.p., 30 minutes
Description: as §3
as §4, with “hours. […]” for “hours.”

[7] = test system: aggression of isolated, bulbectomized rats; assay: Antiaggressive effects: aggression of isolated, bulbectomized rats; assay type: in vivo; details: i.p.
Excerpt: (§5) The antiaggressive effects of the compounds of the invention were investigated by two methods, one of them testing for an inhibition of aggressive behavior in peviously isolated mice (Yen C. Y., Stanger A. L., and Millman N, Arch. Int. Pharmacodyn. Therap. (1959), 123, p. 179-185), and the other in isolated and bulbectomized rats (Garattini S. and Sigg E. B. "Aggressive Behaviour" p. 47-55 Ed. Excerpta Medica Found., Amsterdam, 1969).
(§6) (Tables IX and X, s=significant, p<0.05).

[8] = test system: isolation-induced aggression; assay: Antiaggressive effects: isolation-induced aggression in mice; assay type: in vivo; details: isolated mice, i.p.
Excerpt: as §5, §6

[9] = test system: interoceptive stimulus of apomorphine; assay: Drug discrimination in rats (generalization with apomorphine); assay type: in vivo; details: 2.5 mg.kg^-1 i.p., 30 minutes before test, hydrochloride
Description: Rats were trained to discriminate between the effect of the interoceptive stimulus of apomorphine (0.2 mg.kg^-1 i.p.) and that of physiological saline, according to a principle described by Colpaert F. in "Drug discrimination application in C.N.S. Pharmacology" Ed. Elsevier Biomedical 1982, Amsterdam. […]
Under the experimental conditions employed, the behavior shown by the animals coincides with that noted in the case of administration of apomorphine.

[10] = read-out: % inhibition of rearing-up, mice, i.p. dose 10 mg.kg^-1
[11] = read-out: % inhibition of rearing-up, mice, i.p. dose 20 mg.kg^-1
[12] = 2 h, read-out: % antagonism of hypothermia, mice, i.p. dose 10
[13] = 2 h, read-out: % antagonism of hypothermia, mice, i.p. dose 20

Row | SMILES | ED50 [3] [mg/kg] | % inhibition of hypothermia ([5]; 5 mg.kg^-1 i.p.) | % inhibition of hypothermia ([5]; 10 mg.kg^-1 i.p.) | % inhibition of hypothermia ([5]; 20 mg.kg^-1 i.p.) | change in vivo at 2.5 mg/kg [1] [%] | change in vivo at 5 mg/kg [1] [%] | change in vivo at 10 mg/kg [1, 10] [%] | change in vivo at 20 mg/kg [1, 11] [%] | change in vivo at 2.5 mg/kg ([2]; 2 h) [%] | change in vivo at 5 mg/kg ([2]; 2 h) [%] | change in vivo at 10 mg/kg [2, 12] [%] | change in vivo at 20 mg/kg [2, 13] [%] | % of rats rendered non-aggressive ([7]; 2.5 mg.kg^-1) [%] | % inhibition of hypothermia ([5]; 2.5 mg.kg^-1 i.p.) [%] | % of pairs of mice showing no sign of fighting ([8]; 2.5 mg.kg^-1) [%] | % of pairs of mice showing no sign of fighting ([8]; 5 mg.kg^-1) [%] | % of pairs of mice showing no sign of fighting ([8]; 10 mg.kg^-1) [%] | also measured
1 | O=C(O)CCCCCCNC1CCc2cc3c(cc2C1)OCC3 (racemic) [Example 12, dl-7-{N-(2,3,5,6,7,8-Hexahydronaphtho[2,3-b]furan-7-yl)amino}heptanoic acid hydrochloride] | > 2.52 | -23% | -45% | -18% |  |  |  |  |  |  |  |  |  |  |  |  |  | change in vivo at 10 mg/kg ([1]; mice, i.p. dose 10 mg.kg^-1, read-out: % inhibition of rearing-up): -17%; change in vivo at 20 mg/kg ([1]; mice, i.p. dose 20 mg.kg^-1, read-out: % inhibition of rearing-up): -20%; change in vivo at 10 mg/kg ([2]; mice, i.p. dose 10, read-out: % antagonism of hypothermia): -4%; change in vivo at 20 mg/kg ([2]; mice, i.p. dose 20, read-out: % antagonism of hypothermia): -2%; % ISS (inhibition (-) or potentiation (+) of the stereotypy score) ([4]; i.p. dose 5 mg.kg^-1, amphetamine 1.5 mg.kg^-1 i.p.): +11%; % ISS (inhibition (-) or potentiation (+) of the stereotypy score) ([4]; i.p. dose 10 mg.kg^-1, amphetamine 1.5 mg.kg^-1 i.p.): +14%; change in vivo at 10 mg/kg ([6]; rats, i.p. dose 10 mg.kg^-1, read-out: % ISS (inhibition (-) or potentiation (+) of the stereotypy score)): 19%; change in vivo at 20 mg/kg ([6]; rats, i.p. dose 20 mg.kg^-1, read-out: % ISS (inhibition (-) or potentiation (+) of the stereotypy score)): -3%
2 | CN(C)C1CCc2cc3c(cc2C1)OCC3 (racemic) [Example 6, dl-7-(N,N-Dimethylamino)-2,3,5,6,7,8-hexahydronaphtho[2,3-b]furan hydrochloride] | 0.498 | +1% | -24% | -20% | -17 | -54 | -94 | -100 | 6 | -6 | -25 | -48 | 30 | -1 | 40 | 44 | 78 | change in vivo at 10 mg/kg ([6]; read-out: % ISS (inhibition (-) or potentiation (+) of the stereotypy score), rats, i.p. dose 10 mg.kg^-1): -48%; change in vivo at 20 mg/kg ([6]; read-out: % ISS (inhibition (-) or potentiation (+) of the stereotypy score), rats, i.p. dose 20 mg.kg^-1): -58%
3 | CNC1CCc2cc3c(cc2C1)OCC3 (racemic) [Example 9, dl-7-(N-Methylamino)-2,3,5,6,7,8-hexahydronaphtho[2,3-b]furan hydrochloride] | 0.173 | +37% | +16% | +11% | -46 | -65 | -100 | -100 | -39 | -67 | -86 | -84 | 27 | -8 | 67 | 56 | 89 | % of rats rendered non-aggressive ([7]; 5 mg.kg^-1): 58%
4 | NC1CCc2cc3c(cc2C1)OCC3 (stereo not drawn) [Example 3, d-7-Amino-2,3,5,6,7,8-hexahydronaphtho[2,3-b]furan hydrochloride] | 0.13 |  |  |  |  |  |  |  |  |  |  |  |  |  |  |  |  | % inhibition of rearing-up ([1]; mice, i.p. dose 10 mg.kg^-1): -72%; % inhibition of rearing-up ([1]; mice, i.p. dose 20 mg.kg^-1): -79%; % antagonism of hypothermia ([2]; mice, i.p. dose 2.5): -72%; % antagonism of hypothermia ([2]; mice, i.p. dose 5): -79%; % antagonism of hypothermia ([2]; mice, i.p. dose 10): -91%; % antagonism of hypothermia ([2]; mice, i.p. dose 20): -86%; % of rats rendered non-aggressive ([7]; 2.5 mg.kg^-1, hydrochloride): 64%; % of animals which generalize [9]: 88%; Number of animals showing the effect of generalization with apomorphine [9]: 8/9; % of pairs of mice showing no sign of fighting ([8]; 2.5 mg.kg^-1, hydrochloride): 56%; % of pairs of mice showing no sign of fighting ([8]; 5 mg.kg^-1, hydrochloride): 78%
